Read-outs that look alike come from different tables or passages of the source.
What was measured:
[1] = system: isolated guinea-pig atria; conditions: spontaneously beating isolated guinea-pig atria; cited from earlier work
[2] = system: ECG intervals (RR, PR, QRS, QT); conditions: adult outpatient population (n=1,048); cited from earlier work
hERG K+ channel (IKr) = hERG K+ channel (IKr) (Homo sapiens, UniProt Q12809); assay: whole-cell patch clamp of hERG; assay type: cell-based; conditions: human, HEK293 cells transiently transfected with hERG, pH 7.4
hERG K+ channel = hERG K+ channel (Homo sapiens, UniProt Q12809); assay: whole-cell patch clamp of hERG; assay type: cell-based
KCNJ2 (IK1) = target: T1, KCNJ2 (IK1) (Homo sapiens, UniProt P63252); assay: whole-cell patch clamp of IK1 in KCNJ2-transfected HEK293 cells; assay type: cell-based
T1 sequence (P63252 1-427): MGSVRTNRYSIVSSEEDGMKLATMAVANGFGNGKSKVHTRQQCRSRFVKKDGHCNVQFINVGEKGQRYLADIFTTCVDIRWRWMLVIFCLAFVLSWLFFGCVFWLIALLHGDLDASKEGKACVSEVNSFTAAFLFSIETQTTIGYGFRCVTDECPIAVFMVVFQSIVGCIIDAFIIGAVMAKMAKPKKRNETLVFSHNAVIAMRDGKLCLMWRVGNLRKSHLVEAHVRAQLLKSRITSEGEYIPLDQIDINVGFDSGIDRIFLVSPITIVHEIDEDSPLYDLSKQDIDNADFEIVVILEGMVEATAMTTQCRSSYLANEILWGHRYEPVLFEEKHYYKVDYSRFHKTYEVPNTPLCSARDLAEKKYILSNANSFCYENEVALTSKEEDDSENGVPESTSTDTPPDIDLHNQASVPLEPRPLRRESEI

KCNQ1/KCNE1 (IKs) = KCNQ1/KCNE1 (IKs) (Homo sapiens, UniProt P51787); assay: whole-cell patch clamp of IKs in KCNQ1/KCNE1-cotransfected HEK293 cells; assay type: cell-based
Chain of KCNQ1/KCNE1 (IKs) (P51787 whole entry): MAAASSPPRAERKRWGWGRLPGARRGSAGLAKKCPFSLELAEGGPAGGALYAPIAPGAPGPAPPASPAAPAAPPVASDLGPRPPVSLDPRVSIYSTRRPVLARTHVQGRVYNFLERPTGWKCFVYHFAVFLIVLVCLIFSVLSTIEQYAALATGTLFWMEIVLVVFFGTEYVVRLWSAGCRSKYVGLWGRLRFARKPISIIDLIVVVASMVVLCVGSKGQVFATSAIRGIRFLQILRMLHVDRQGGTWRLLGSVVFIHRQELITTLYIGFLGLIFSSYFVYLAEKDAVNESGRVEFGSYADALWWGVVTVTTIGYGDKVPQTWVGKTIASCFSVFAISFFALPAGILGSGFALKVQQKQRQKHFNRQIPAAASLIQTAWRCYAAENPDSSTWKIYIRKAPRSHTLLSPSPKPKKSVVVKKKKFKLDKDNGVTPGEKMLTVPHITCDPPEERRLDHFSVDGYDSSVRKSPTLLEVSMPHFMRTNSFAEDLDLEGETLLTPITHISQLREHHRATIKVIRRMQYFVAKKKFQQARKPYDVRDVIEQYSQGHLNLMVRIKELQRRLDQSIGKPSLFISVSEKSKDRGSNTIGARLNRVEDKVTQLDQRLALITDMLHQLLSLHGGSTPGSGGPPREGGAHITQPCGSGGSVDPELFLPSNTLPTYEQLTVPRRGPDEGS

Chain of hERG K+ channel (IKr) (Q12809 whole entry): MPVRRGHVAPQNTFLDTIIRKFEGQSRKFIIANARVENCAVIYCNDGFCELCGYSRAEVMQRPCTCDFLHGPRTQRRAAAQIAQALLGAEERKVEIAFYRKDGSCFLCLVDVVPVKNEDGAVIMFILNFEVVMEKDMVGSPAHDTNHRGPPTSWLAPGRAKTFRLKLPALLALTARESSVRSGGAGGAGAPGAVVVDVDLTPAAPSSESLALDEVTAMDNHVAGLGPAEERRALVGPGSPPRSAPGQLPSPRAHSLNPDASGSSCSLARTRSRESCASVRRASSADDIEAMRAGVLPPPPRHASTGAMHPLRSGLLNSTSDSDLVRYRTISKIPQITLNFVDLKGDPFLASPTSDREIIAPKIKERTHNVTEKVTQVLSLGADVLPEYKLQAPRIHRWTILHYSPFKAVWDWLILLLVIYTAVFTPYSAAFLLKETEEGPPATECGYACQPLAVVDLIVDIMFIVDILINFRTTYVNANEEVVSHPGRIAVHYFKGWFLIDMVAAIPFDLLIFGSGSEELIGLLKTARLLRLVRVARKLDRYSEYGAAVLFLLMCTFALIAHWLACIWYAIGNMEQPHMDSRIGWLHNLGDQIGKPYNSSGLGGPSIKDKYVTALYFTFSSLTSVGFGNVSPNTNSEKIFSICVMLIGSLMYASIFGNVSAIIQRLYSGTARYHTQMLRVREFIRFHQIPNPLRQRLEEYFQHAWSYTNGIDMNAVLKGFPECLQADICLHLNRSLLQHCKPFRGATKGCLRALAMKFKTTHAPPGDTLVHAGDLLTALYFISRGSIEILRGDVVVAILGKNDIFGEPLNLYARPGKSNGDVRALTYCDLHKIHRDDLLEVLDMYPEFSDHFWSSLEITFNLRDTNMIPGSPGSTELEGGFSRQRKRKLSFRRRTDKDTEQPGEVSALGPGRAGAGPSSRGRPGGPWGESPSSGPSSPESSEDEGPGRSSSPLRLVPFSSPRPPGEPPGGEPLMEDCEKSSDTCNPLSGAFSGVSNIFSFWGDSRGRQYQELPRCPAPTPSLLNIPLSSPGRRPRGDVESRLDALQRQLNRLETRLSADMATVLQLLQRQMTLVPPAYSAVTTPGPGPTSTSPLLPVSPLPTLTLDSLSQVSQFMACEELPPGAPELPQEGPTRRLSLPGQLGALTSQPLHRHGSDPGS
Chain of hERG K+ channel (Q12809 whole entry): as above

## CN[C@H]1CC[C@@H](c2ccc(Cl)c(Cl)c2)c2ccccc21 [Sertraline]
[1]
  effect on rate of contractions and contractile force: dose-dependent decrease in the rate contractions and in the contractile force
[2]
  effect on RR, PR, QRS, and QT intervals: no significant effect
hERG K+ channel (IKr)
  inhibition at 1 µM: 7.9 ± 1.9%
  inhibition at 3 µM: 24.2 ± 1.9%
  inhibition at 10 µM: 60.1 ± 2.7%
  inhibition at 30 µM: 86.4 ± 1.4%
hERG K+ channel
  IC50: 0.7 µM
hERG K+ channel; HEK293 cells, Hill fit, n=4
  Hill coefficient, hERG current inhibition: 1.3±0.02
KCNJ2 (IK1)
  IC50: 10.5 µM
KCNJ2 (IK1); 1 µM sertraline, n=4
  reduction of IK1 amplitude: 0.7±2.7%
KCNJ2 (IK1); 3 µM sertraline, n=4
  reduction of IK1 amplitude: 9.4±1.1%
KCNJ2 (IK1); 10 µM sertraline, n=4
  reduction of IK1 amplitude: 45.7±3.9%
KCNJ2 (IK1); 30 µM sertraline, n=4
  reduction of IK1 amplitude: 92.5± 1.2%
KCNJ2 (IK1); KCNJ2 HEK293 cells, n=4
  Hill coefficient, IK1 inhibition: 2.1±0.2
KCNQ1/KCNE1 (IKs)
  IC50: 12.3 ± 1.3 µM
KCNQ1/KCNE1 (IKs); 1 µM sertraline, n=4
  reduction of IKs amplitude: 1.5±3.8%
KCNQ1/KCNE1 (IKs); 3 µM sertraline, n=4
  reduction of IKs amplitude: 10.3±2.5%
KCNQ1/KCNE1 (IKs); 10 µM sertraline, n=4
  reduction of IKs amplitude: 36.6±3.5%
KCNQ1/KCNE1 (IKs); 30 µM sertraline, n=4
  reduction of IKs amplitude: 84.0±5.6%
KCNQ1/KCNE1 (IKs); KCNQ1/KCNE1 HEK293 cells, n=4
  Hill coefficient, IKs inhibition: 2.5±0.1
KCNQ1/KCNE1 (IKs); human, HEK293 cells transiently cotransfected with KCNQ1/KCNE1, pH 7.4
  IC50: 15.2 µM
